Earlier results on three molecules are cited in patent US20080317725A1, “COMPOSITIONS AND METHODS OF TREATING CHRONIC KIDNEY DISEASE” (priority 2007, published 2008).

For data set [1] the following is noted: administered in large doses.
Data set [2] has as its system subjects undergoing dialysis. The following applies: vitamin A intake of about 15,000 IU.

With `CC(=O)N[C@@H](CS)C(=O)O` [NAC, N-acetyl cysteine], in data set [1], the side effect result is “cause nausea”.
On to `C=C1CC[C@H](O)C/C1=C/C=C1\CCC[C@]2(C)[C@@H]([C@H](C)/C=C/[C@H](C)C(C)C)CC[C@@H]12` [vitamin D2, ergocalciferol], for which the “vitamin D activity in humans relative to vitamin D3” value with humans was “about 1.7 times less than D3”.
Consider vitamin A, for which the “toxicity of vitamin A intake” value in data set [2] was “produce vitamin A toxicity and correlate with hypercalcaemia”.
